Measured values taken from patent US20230270730A1, “COMPOSITION CONTAINING ARYLAMIDE DERIVATIVE” (Chugai Seiyaku Kabushiki Kaisha, priority 2020, published 2023).

Columns and labels:
[1] = molecular target: T1, BRAF (Homo sapiens, UniProt P15056); assay: BRAF-inhibiting activity (time-resolved fluorescence-fluorescence resonance energy transfer assay); type: biochemical; details: MEK1, ATP-containing buffer
T1 construct: purchased Eurofins Genomics KK
Protocol: The BRAF-inhibiting activity of the compounds listed in Table 2 below was evaluated by the time-resolved fluorescence-fluorescence resonance energy transfer assay as described below.

[2] = Human liver microsome stability; type: in vitro ADME; details: pH 7.4; human liver microsomes, NADPH, 37° C.
Protocol: The compounds listed in Table 2 below were tested for metabolic stability in human liver microsomes as described below using a Biomek3000 (Beckman Coulter). There were dispensed 400 ILL of 1 mg/mL human liver microsomes (XENOTECH)/0.1 M potassium phosphate buffer (pH 7.4) into each well of a 96-well plate. A DMSO solution (4 μL) of 200 μM test compound was then added, and incubation was conducted until reaching 37° C. To this reaction mixture (200 IL) there was added a solution (200 μL) containing 2 mM NADPH (ORIENTAL YEAST)/0.1 M potassium phosphate buffer (pH 7.4) that had been incubated at 37° C. At 0 min, 5 min, 15 min or 30 min after addition, the reaction mixture (50 μL) was added to acetonitrile (100 μL) to stop the metabolic reaction. After the metabolic reaction was stopped, a 1 μM warfarin aqueous solution (50 μL) was added to each reaction mixture as an internal standard. […] The percent remaining relative to the amount of test compound at 0 min was calculated from the obtained peak area ratio of the test compound to internal standard. The elimination rate constant (ke) was calculated from the incubation time and percent remaining using the primary elimination rate equation, and the hepatic intrinsic clearance (CLint) was calculated using the formula shown below. […]

[3] = system: A549 human lung cancer cells; assay: Cell proliferation-inhibiting activity, A549 (CellTiter-Glo); type: cell-based; details: A549, 96 h

T1 sequence (P15056 whole entry): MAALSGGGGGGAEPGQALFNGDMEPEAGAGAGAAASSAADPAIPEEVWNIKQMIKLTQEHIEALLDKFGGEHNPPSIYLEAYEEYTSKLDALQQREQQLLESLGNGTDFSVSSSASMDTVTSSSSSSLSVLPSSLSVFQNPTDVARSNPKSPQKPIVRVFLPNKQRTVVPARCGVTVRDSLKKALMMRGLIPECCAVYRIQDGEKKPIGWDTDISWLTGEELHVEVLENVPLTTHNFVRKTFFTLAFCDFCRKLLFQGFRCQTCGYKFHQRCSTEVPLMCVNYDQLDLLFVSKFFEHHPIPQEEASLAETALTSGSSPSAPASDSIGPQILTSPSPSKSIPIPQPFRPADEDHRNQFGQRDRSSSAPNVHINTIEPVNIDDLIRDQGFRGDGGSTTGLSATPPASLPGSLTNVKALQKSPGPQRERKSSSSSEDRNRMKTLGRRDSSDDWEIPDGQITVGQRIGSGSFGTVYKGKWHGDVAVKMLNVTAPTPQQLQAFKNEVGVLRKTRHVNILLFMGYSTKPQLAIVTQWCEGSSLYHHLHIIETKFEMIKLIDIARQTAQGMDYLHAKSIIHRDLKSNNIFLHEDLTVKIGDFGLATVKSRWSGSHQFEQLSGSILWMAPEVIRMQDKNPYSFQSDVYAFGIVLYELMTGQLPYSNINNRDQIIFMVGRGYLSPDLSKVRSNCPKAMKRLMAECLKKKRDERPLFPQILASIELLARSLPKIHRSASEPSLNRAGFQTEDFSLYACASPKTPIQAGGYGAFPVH
T1 sequence (Q02750 whole entry partner): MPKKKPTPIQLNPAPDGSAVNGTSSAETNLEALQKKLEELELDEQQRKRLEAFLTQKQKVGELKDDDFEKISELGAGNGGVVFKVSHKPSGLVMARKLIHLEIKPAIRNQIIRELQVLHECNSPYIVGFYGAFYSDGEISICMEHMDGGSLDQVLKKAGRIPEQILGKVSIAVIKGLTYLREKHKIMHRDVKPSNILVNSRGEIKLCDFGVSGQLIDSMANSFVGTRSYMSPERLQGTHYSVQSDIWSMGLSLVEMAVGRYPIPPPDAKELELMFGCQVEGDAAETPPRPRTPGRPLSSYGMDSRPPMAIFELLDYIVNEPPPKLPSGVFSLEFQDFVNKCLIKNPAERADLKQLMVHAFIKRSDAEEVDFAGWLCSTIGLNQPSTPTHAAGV

| IC50 [1] | SMILES | IC50 [3] | further results |
| --- | --- | --- | --- |
| 9 nM | CCNS(=O)(=O)Nc1nccc(Cc2cc(C(=O)NOCCO)c(Nc3ccc(I)cc3F)c(F)c2F)c1F [Sample A-44, 5-[[2-(Ethylsulfamoylamino)-3-fluoropyridin-4-yl]methyl]-3,4-difluoro-2-(2-fluoro-4-iodoanilino)-N-(2-hydroxyethoxy)benzamide] |  |  |
|  | NC(=O)c1cc(Cc2ccnc(NS(=O)(=O)NC3C4COCC43)c2F)c(F)c(F)c1Nc1ccc(I)cc1F (centres unmarked) [Sample A-22, 3,4-Difluoro-2-(2-fluoro-4-iodoanilino)-5-[[3-fluoro-2-(3-oxabicyclo[3.1.0]hexan-6-ylsulfamoylamino)pyridin-4-yl]methyl]benzamide] |  | microsomal CLint at 0.99 µM [2]: 47 µL/min/mg |
|  | NC(=O)c1cc(Cc2ccnc(NS(=O)(=O)NCC3COC3)c2F)c(F)c(F)c1Nc1ccc(I)cc1F [Sample A-21, 3,4-difluoro-2-(2-fluoro-4-iodoanilino)-5-[[3-fluoro-2-(oxetan-3-ylmethylsulfamoylamino)pyridin-4-yl]methyl]benzamide] | 3 nM |  |
|  | CC1(NS(=O)(=O)Nc2nccc(Cc3cc(C(N)=O)c(Nc4ccc(I)cc4F)c(F)c3F)c2F)CCC1 [Sample A-35, 3,4-difluoro-2-(2-fluoro-4-iodoanilino)-5-[[3-fluoro-2-[(1-methylcyclobutyl)sulfamoylamino]pyridin-4-yl]methyl]benzamide] | 2 nM |  |
| 1 nM | NC(=O)c1cc(Cc2ccnc(NS(=O)(=O)NC3CCOCC3)c2F)c(F)c(F)c1Nc1ccc(I)cc1F [Sample A-29, 3,4-Difluoro-2-(2-fluoro-4-iodoanilino)-5-[[3-fluoro-2-(oxan-4-ylsulfamoylamino)pyridin-4-yl]methyl]benzamide] |  |  |
